In US20250171490A1, “DHEA-DERIVED STEROIDS” (DEBRECENI EGYETEM, priority 2022, published 2025):
Where “and” joins values, the source holds several entries; their conditions need not be identical. Equal entries are not always repeated. Entries after “also recorded” stand apart in the source; their conditions may differ.

Tests used:
Type in all cases: in vivo
[1] = test system: ApoE^−/− mice; assay: Aortic valve calcification in ApoE−/− mice on high-fat diet, von Kossa staining (preventive treatment); conditions: 8 weeks; for calcification / mineralization of aortic valve (von Kossa): treatment in drinking water, vs tap water
From the text: (§1) All the animal experiments were approved by the guidelines from Directive 2010/63/EU of the European Parliament on the protection of animals used for scientific purposes. Animal experiments performed in this study were approved by the Scientific and Research Ethics Committee of the Scientific Council of Health of the Hungarian Government under the registration number of DE MÁB/157-5/2010 and are reported in accordance with the ARRIVE guidelines. C57BL/6 ApoE^−/− mice (The Jackson Laboratory; B6.129P2 Apoetm1Unc/J; RRID: IMSR_JAX: 002052) were maintained at the University of Debrecen under specific pathogen-free conditions in accordance with guidelines from Institutional Ethical Committee. To induce atherosclerotic plaque formation, standard chow diet was changed to atherogenic diet (15% fat, 1.25% cholesterol, ssniff Spezialdiäten GmbH, Soest, Germany) at the age of 8 weeks. Mice were randomly divided into two groups and parallelly with the atherogenic diet, mice received tap-water or DHEA-derived steroid (100 μg steroid/mouse/day) in tap-water. The DHEA-derived steroid was replaced every day. Aortas were harvested after 8 weeks of treatment. All mice were euthanized by a predictable and controllable administering of slow-fill compressed CO2 asphyxiation. Atherogenic food composition (high-fat diet): Crude Nutrients (%): Crude Protein 19%; crude fat 15.2%; crude fiber 3.4%; crude ash 6.3%; starch 25.6%; sugar 11.2%; Additives (per kg): vitamin A 15,000 IU; vitamin D3 1,000 IU; vitamin E 110 mg; vitamin K3 5 mg; vitamin C 0 mg; copper 13 mg.
(§2) Immunohistochemistry from the aortic root was performed on formalin-fixed, paraffin-embedded tissue sections. 4 μm slides were then deparaffinated using xylol and ethanol. The serial sections were stained with Gill Hematoxylin solution (Merck) followed by eosin counterstaining or with von Kossa. For digital documentation, the stained specimens were scanned with a Mirax Midi scanner (3D Histech, Budapest, Hungary). Macroscopic pictures of the arteries were taken with Nikon D3200 camera (Nikon Corp.; Minato, Tokyo, Japan).

[2] = test system: ApoE^−/− mice; assay: Atherosclerotic plaque formation in ApoE−/− mice on atherogenic diet, en face Oil Red O staining of whole aorta (preventive treatment); conditions: 100 μg steroid/mouse/day in tap-water, 8 weeks, vs tap water control
From the text: as §1
(§3) Aortas were dissected from the aortic arch to the iliac bifurcation. After that, the fatty tissue was carefully removed under a stereomicroscope (M125; Leica Biosystems Nussloch GmbH). […] 0.07 g ORO powder was dissolved in 25 mL methanol and mixed for 10 min on a magnetic stirrer. Finally, 10 mL 1 mol/L NaOH was added to the ORO solution and filtered it. Images were taken with the camera (Nikon D3200; Nikon Corp., Japan) and whole aorta plaque area was analyzed with ImageJ 1.49 software.

[3] = test system: ApoE^−/− mice; assay: Reversal of already formed atherosclerotic lesion in ApoE−/− mice, Oil Red O (therapeutic treatment); conditions: for already formed atherosclerotic lesion (plaque size, Oil Red O): atherogenic diet 4 or 6 weeks, then chop diet plus S2 in water for 4 or 8 weeks, vs tap water, sodium salt
From the text: (§4) In the further part of the present work, it was examined whether the compounds of the invention have positive therapeutic effect, too. In the above-mentioned animal model, the present inventors developed during eight weeks real atherosclerosis, and for an additional eight weeks animals were given S2 compound (100 micrograms per day per animal). Control mice got pure drinking water. At the end of experiment the size and number of sclerotic plaques, the calcification of heart valves and the amount of hydrogen sulfide was measured. […] This means the compounds of the invention have not only preventive, but also therapeutic effect.
as §3
(§5) From a pharmacological point of view to the best of inventors' knowledge, there is no medicine in the market to reverse atherosclerosis and calcification of vessels. Current drugs only slow down the progression of atherosclerosis. Therefore, the present inventors examined the possibility of S2 steroid treatment to reverse the already formed atherosclerotic lesion and calcification. In this experiment the present inventors kept the mice on atherogenic diet for 4 or 6 weeks for development of atherosclerotic lesion and calcification. After that the present inventors changed the atherogenic diet to chop diet and they added S2 steroid to the mice's water for 4 weeks and 8 weeks. Control group got tap water only.

[4] = test system: ApoE^−/− mice; assay: Reversal of already formed aortic valve calcification in ApoE−/− mice, von Kossa (therapeutic treatment); conditions: for already formed aortic valve extracellular matrix mineralization (von Kossa): high-fat diet 6 weeks, then chop diet plus S2 in tap water for 4 weeks, vs tap water, sodium salt
From the text: as §4, §2, §5

[5] = test system: H2S; assay: Sulfide (H2S) level of mice plasma, zinc precipitation assay
From the text: as §1
Sulfide levels were measured with zinc precipitation method based upon developed by Gilboa-Garber [Gilboa-Garber N. 1971] and modified by A. D. Ang et al. [Ang A D, et al. 2012]. The human carotid artery was homogenized under liquid nitrogen in 7.4 pH PBS and sonicated it. […] After 10 min the absorbance of the generated methylene blue (MB) was measured with a spectrophotometer at 667 nm. Since during the reaction 1 mol/L MB formed from 1 mol/L sulfide, the concentration was determined by the MB's extinction coefficient (30 200 M 1 cm 1). […]

[6] = test system: ApoE^−/− mice; assay: Survival of ApoE−/− mice during treatment; conditions: atherogenic diet; for survival / mortality of mice / mouse death before the end of the experiment: 8 weeks treatment
From the text: as §1

[7] = listed as DHEA-derived steroid, sodium salt
[8] = listed as DHEA-derived S2 steroid
[9] = atherosclerosis developed during eight weeks, then 100 micrograms per day per animal for additional eight weeks, vs drinking water

Row | Compound | atherosclerotic plaque formation / area of atherosclerotic lesion (Oil Red O, whole aorta) ([2]; sodium salt) | survival / mortality of mice [6] | calcification / mineralization of aortic valve (von Kossa) [1] | atherosclerotic plaque formation / area of atherosclerotic lesion (Oil Red O, whole aorta) [2] | day of the treatment regime on which the first treated animal died [6] | mouse death before the end of the experiment [6] | further results
1 | CCCCCCCCCCCC(=O)OC1CC[C@H]2[C@@H]3CC=C4CC(OS(=O)(=O)[O-])CC[C@]4(C)[C@H]3CC[C@]12C.[Na+] (some centres unmarked) [S2, 17-lauroyloxy-5-androstene-3-sulphate sodium salt] | highly efficient both in the prevention and reversal of atherosclerosis | survived | – | – | – | – | lower mineralized area of aortic valves calcification nodules compared to tap-water mice ([1]; steroid in drinking water): 91.2%; calcification / mineralization of aortic valve (von Kossa) [1, 7]: decreases the expansion of the extracellular matrix; also recorded: significantly inhibited the development of calcific nodules in aortic valves; atherosclerotic plaque formation / area of atherosclerotic lesion (Oil Red O, whole aorta) [2, 7]: inhibits atherosclerosis; also recorded: significantly lesser area of atherosclerotic lesion; already formed atherosclerotic lesion (plaque size, Oil Red O) [3, 8]: reverses atherosclerosis; already formed atherosclerotic lesion (plaque size, Oil Red O) [3]: significantly lesser atherosclerotic lesion; size and number of sclerotic plaques [3, 9]: significantly less; calcification of heart valves [4, 9]: significantly less; already formed aortic valve extracellular matrix mineralization (von Kossa) [4, 8]: reverses atherosclerosis and aortic valve calcification; already formed aortic valve extracellular matrix mineralization (von Kossa) [4]: significant lesser extracellular matrix mineralization; H2S content of mice plasma ([5]; ApoE−/− mice, steroid treated vs tap-water): elevates H2S content of the mice plasma; plasma H2S concentration compared to control mice plasma ([5]; ApoE−/− mice, steroid treated vs tap-water, normalized to protein content): approximately 2.4 times; concentration of hydrogen sulfide [5, 9]: significantly higher
2 | Dehydroepiandrosterone sulfate [DHEA-S] | – | elevated mortality rate of the animals | cannot decrease the mineralization of extracellular matrix of aortic valve; also recorded: Failed to Prevent Calcification of Aortic Valve | fail to inhibit atherosclerosis; also recorded: not Able to Abrogate Atherosclerotic Plaque Formation | 55 days | 22% and 28.6% | atherosclerotic plaque formation / area of atherosclerotic lesion (Oil Red O, whole aorta) ([2]; listed as DHEAS): did not diminish the development of atherosclerosis
3 | CCCCCCCCCCCCCCCC(=O)OC1CC[C@H]2[C@@H]3CC=C4CC(OS(=O)(=O)[O-])CC[C@]4(C)[C@H]3CC[C@]12C.[Na+] (some centres unmarked) [C16, 17-palmitoyloxy-5-androstene-3-sulfate sodium salt] | fail to inhibit atherosclerosis; also recorded: not Able to Abrogate Atherosclerotic Plaque Formation | survived | – | – | – | – | –
4 | CCCCCC(=O)OC1CC[C@H]2[C@@H]3CC=C4CC(OS(=O)(=O)[O-])CC[C@]4(C)[C@H]3CC[C@]12C.[Na+] (some centres unmarked) [C6, 17-hexanoyloxy-5-androstene-3-sulfate sodium salt] | fail to inhibit atherosclerosis; also recorded: not Able to Abrogate Atherosclerotic Plaque Formation | survived | – | – | – | – | –
5 | C[C@]12CC[C@H](O)CC1=CC[C@@H]1[C@@H]2CC[C@]2(C)C(=O)CC[C@@H]12 [DHEA, Dehydroepiandrosterone] | – | elevated mortality rate of the animals | cannot decrease the mineralization of extracellular matrix of aortic valve; also recorded: Failed to Prevent Calcification of Aortic Valve | fail to inhibit atherosclerosis; also recorded: did not diminish the development of atherosclerosis; also recorded: not Able to Abrogate Atherosclerotic Plaque Formation | 50 days | 45% and 45.5% | –
